Results published in article PMC6328429, “Synthesis of a benzoxazinthione derivative of tanaproget and pharmacological evaluation for PET imaging of PR expression” (EJNMMI Radiopharmacy and Chemistry, 2019).
Entries after “also recorded” stand apart in the source; their conditions may differ.

Key:
[1] = In vitro non-radioactive metabolite analysis and clearance in HLM; type: in vitro ADME, human
Protocol: (§1) Microsomal incubations were performed using a Hamilton Microlab Star liquid handling workstation (Hamilton Robotics, Bonaduz, Switzerland). Test compound 2 (final concentration 1 or 10 μM, 1% DMSO) was pre-incubated at 37 °C for 10 min in MLM or HLM (final concentration 1 mg/ml prepared in 10 mM PBS). Reactions were initiated by the addition of NADPH (final concentration 1 mM). Aliquots were removed from each incubation and quenched in 3 volumes of ice-cold MeOH containing internal standard olomoucine (500 nM in MeOH) at − 1, 0, 5, 15, 30 and 60 min. Incubations were conducted in singlicate. […] Terminated incubations were centrifuged at 3700 rpm at 4 °C for 30 min and supernatant taken for analysis. Microsomal incubations were analysed by liquid chromatography-tandem mass spectrometry (LC-MS/MS). This consisted of a Dionex Ultimate 3000 UHPLC system coupled to a ThermoScientific Q Exactive Plus orbitrap mass spectrometer (Thermo Fisher Scientific Inc., Waltham, USA). Chromatographic separation was achieved using an Acquity UPLC HSS T3 column (1.8 μm, 100 × 2.1 mm) (Waters, Elstree, UK) at 50 °C and a binary mobile phase gradient at a flow rate of 0.4 ml/min. Initial LC conditions comprised 10% formic acid (0.1%) in water (A), 90% methanol (B). This was ramped to […] at 12 min. Sample analysis was by positive ion electrospray ionization. The capillary voltage was 3.5 kV. Full MS/dd-MS^2 (full MS scan followed by data dependent MS/MS) and Full MS/AIF (full MS scan followed by all ion fragmentation) workflows were used in combination. Full MS was performed at a resolution of 70,000, AGC target 1 e^6; dd-MS2 at a resolution of 17,5000, AGC target 1 e^5. LC-MS response (peak area of the analyte/peak area of internal standard) was fitted to a nonlinear single exponential model using software GraphPad Prism software (v6.07, GraphPad Software, Inc., La Jolla, USA). Elimination rate constant (k) was determined and intrinsic clearance, CLint, was calculated as CLint = (V.k)/mg protein where V is the incubation volume (μl) and mg protein is the mg microsomal protein in the incubation. Identification of metabolites in microsomal incubations and elucidation of their structures was undertaken with Compound Discoverer software (v2.0.0.303, Thermo Fisher Scientific Inc., Waltham, USA).

[2] = molecular target: T1, GR (Homo sapiens, UniProt P04150); experiment: PatHunter express CHO-K1 GR nuclear translocation assay; type: cell-based; conditions: CHO-K1 cells; 6 h; at 0.5 μM; dexamethasone positive control
T1 construct: host or cells: CHO-K1 (Chinese hamster ovary) cells
T1 sequence (P04150 1-777): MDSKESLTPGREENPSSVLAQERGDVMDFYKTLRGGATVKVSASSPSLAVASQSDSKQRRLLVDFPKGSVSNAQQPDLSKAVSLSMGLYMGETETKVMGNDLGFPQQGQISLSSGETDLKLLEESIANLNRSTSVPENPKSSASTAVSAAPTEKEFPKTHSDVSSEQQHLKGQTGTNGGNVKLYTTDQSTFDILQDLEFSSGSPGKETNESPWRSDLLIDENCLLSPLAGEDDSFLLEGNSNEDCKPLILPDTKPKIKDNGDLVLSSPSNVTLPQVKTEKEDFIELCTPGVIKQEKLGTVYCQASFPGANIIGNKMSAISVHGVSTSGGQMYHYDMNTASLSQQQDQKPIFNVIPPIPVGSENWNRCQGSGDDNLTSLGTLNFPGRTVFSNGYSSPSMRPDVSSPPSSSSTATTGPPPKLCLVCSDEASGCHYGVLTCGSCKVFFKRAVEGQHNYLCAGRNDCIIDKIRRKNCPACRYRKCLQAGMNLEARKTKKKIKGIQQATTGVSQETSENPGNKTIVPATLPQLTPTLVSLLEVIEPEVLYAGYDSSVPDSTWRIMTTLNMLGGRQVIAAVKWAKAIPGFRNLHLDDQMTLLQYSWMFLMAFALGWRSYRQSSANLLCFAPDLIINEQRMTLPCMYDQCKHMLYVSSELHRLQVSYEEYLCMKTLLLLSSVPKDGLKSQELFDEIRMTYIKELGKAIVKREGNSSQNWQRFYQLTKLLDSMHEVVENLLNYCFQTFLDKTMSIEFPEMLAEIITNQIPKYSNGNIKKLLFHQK
Protocol: Compound 2 was analysed for GR binding using the PatHunter® express CHO-K1 GR Nuclear Translocation assay (DiscoveRx™, Fremont, CA, USA). Reagents were thawed and equilibrated to room temperature prior to use. Dexamethasone standard (10 mM, 100% DMSO) was diluted and used to prepare 12 standards by 1:4 dilution. Test compound 2 was dissolved in 100% DMSO and diluted in serial 1:3 dilutions to a final concentration of DMSO (v/v) of 0.1%. CHO-K1 (Chinese hamster ovary) cells were seeded in a 96-well plate with CP reagent and incubated for 24 h at 37 °C, 5% CO2. Cells were then incubated with the Dexamethasone standard and compound 2 for 6 h at 37 °C, 5% CO2. Following incubation, signal was detected using the PathHunter® detection reagent provided in the kit and incubated in the dark for 1 h. The plate was read using a luminescence plate reader (Additional file 1: Figure S33).

[3] = In vitro non-radioactive metabolite analysis and clearance in MLM; type: in vitro ADME, mouse
Protocol: as §1

- Clearance, fold slower in HLM than in MLM ([1]; HLM versus MLM): ca. 22 fold
- microsomal CLint ([1]; human, human liver microsomes, HLM 1 mg/ml, NADPH 1 mM, 37 °C): 56 µL/min/mg
- microsomal CLint ([3]; mouse, mouse liver microsomes, MLM 1 mg/ml, NADPH 1 mM, 37 °C): 1270 µL/min/mg
Compound: CC1(C)OC(=S)Nc2ccc(-c3cccnc3F)cc21 [Compound 2, 6-(2-fluoropyridin-3-yl)-4,4-dimethyl-1H-benzo[d][1,3]oxazine-2(4H)-thione]
- Metabolite identification by mass spectrometry in HLM ([1]; HLM incubation, LC-MS/MS): conversion of the thiocarbamate into oxocarbamate as the major metabolic pathway and highlighted oxidative defluorination
- GR nuclear translocation response [2]: poor binder; also recorded: failed to elicit a response
- Metabolite identification by mass spectrometry in MLM ([3]; MLM incubation, LC-MS/MS): conversion of the thiocarbamate into oxocarbamate as the major metabolic pathway and highlighted oxidative defluorination
